Columns and labels:
[1] = system: male Wistar rats with left ventricular hypertrophy induced by constriction of the abdominal aorta; assay: Evaluation of cardiac function in rats with aortic constriction (left ventricular catheter); assay type: in vivo, rat; conditions: anaesthetised rats with aortic constriction, clofibrate 0.2% in the feed for 12 weeks, mean ± standard deviation
Experimental: (§1) Animal-housed male Wistar rats weighing 100-120 g were used: 5 per cage (cage size: 425 mm×266 mm×180 mm with a sawdust litter) at a temperature of […] and 50±15% humidity with a 12/12 h light/darkness cycle and with 15-20 air changes/hour. The animals were fed with LP ALTROMIN (REIPER) feed and spring water ad libitum
(§2) Left ventricular hypertrophy was induced in rats anaesthetised with Nembutal sodium, by means of constriction of the abdominal aorta with a clip (Ø0.8 mm) placed in the abdominal aorta between the diaphragm and the renal branches; one group of animals, which was then used as a control group, underwent the same operation but was not submitted to constriction of the aorta (shams).
(§3) The animals were thus randomly assigned to the following groups:
(§4) CLO: operated on with aortic constriction and treated for 12 weeks, from the day after the operation with clofibrate 0.2% in the feed (60-100 mg/kg/day (n=11).
At the end of treatment, cardiac function was evaluated, in the animals anaesthetised with Nembutal sodium, by means of a polyethylene catheter inserted in the left ventricle via the carotid and connected up to a pressure transducer (Statham p23 XL) and to an amplifier (Biomedica Mangoni bm 61).
The parameters recorded were: heart rate, ventricular systolic and end-diastolic pressure, and the positive and negative derivatives of ventricular pressure, which were recorded on a personal computer by means of a special data acquisition system (IDAS). The measurements were taken for a period of 30 minutes.
The data were expressed as mean ± standard deviation and were compared using Student's t-test for independent data. Differences with P<0.05 were regarded as statistically significant.

[2] = system: male Wistar rats with left ventricular hypertrophy induced by constriction of the abdominal aorta; conditions: rats with aortic constriction, clofibrate 0.2% in the feed for 12 weeks, mean ± standard deviation
Experimental: as §1, §2, §3, §4
At the end of the experiments the animals were sacrificed by means of a lethal dose of Nembutal, the abdominal cavity was opened, the organs were exteriorised in order to verify correct positioning of the aortic clip, and the heart, lungs and liver were then removed and carefully dried and weighed after macroscopic observation of any abnormalities.
The data were expressed as mean ± standard deviation and were compared using Student's t-test for independent data. […]

Q: For CCOC(=O)C(C)(C)Oc1ccc(Cl)cc1 [CLO, clofibrate], which “DP/dt max = positive derivative of ventricular pressure” value [1] is on record?
A: Its value is 16108 ± 1115eC mm Hg/sec.

Q: What about the “DP/dt min = negative derivative of ventricular pressure” value [1] of the same compound?
A: The value was 9556 ± 560bA mm Hg/sec.

Q: What about the DP/dtmax/LVSP (positive derivative normalised for ventricular systolic pressure) [1] of the same compound?
A: Its DP/dtmax/LVSP (positive derivative normalised for ventricular systolic pressure) is 77 ± 5 s⁻¹.

Q: What about the “HR = heart rate” value [1] of the same compound?
A: Its value is 401 ± 16 b/min.

Q: And the “LDevP/HW (developed pressure normalised for ventricular weight)” value [1]?
A: The value was 13.3 ± 1.5aC.

Q: And the LVEDP = left ventricular end-diastolic pressure [1]?
A: The LVEDP = left ventricular end-diastolic pressure was 7.2 ± 1.2 mmHg.

Q: And the “LVSP = left ventricular systolic pressure” value [1]?
A: The value was 206 ± 5aB mm Hg.

Q: And the LdevP developed pressure [1]?
A: Its LdevP developed pressure is 207 ± 7cA mm Hg.

Q: And the “VW/BW (ventricular weight (mg) / body weight (g))” value [2]?
A: The value was 3.33 ± 0.20a.
